Assay results as given in patent US9073821B2, “Hydroxamic acid derivative” (priority 2010, dated 2015).
In brackets after ≈: the same amount, converted by molar mass. Like-named read-outs stand apart in the source and are kept apart here.

Key:
E. coli LpxC enzyme = E. coli LpxC enzyme (Escherichia coli (strain K12), UniProt P0A725); assay: Inhibitory activity on E. coli LpxC enzyme (fluorescamine assay); type: biochemical; settings: Table 4
Experimental: Test 2: Evaluation of the Inhibitory Activity on E. coli LpxC Enzyme
An inhibition curve was constructed for each test compound by performing the aforementioned reaction at varying concentrations of the test compound. From this inhibition curve, the concentration of the test compound at which the formation of the reaction product was suppressed by 50% was determined as the IC50 of the test compound, which was an index for the inhibitory activity on E. coli LpxC enzyme.

[1] = target: Pseudomonas aeruginosa LpxC enzyme (Pseudomonas aeruginosa (strain ATCC 15692 / DSM 22644 / CIP 104116 / JCM 14847 / LMG 12228 / 1C / PRS 101 / PAO1), UniProt P47205); assay: biochemical; type: biochemical
[2] = system: Klebsiella pneumoniae strain ATCC13883; assay: Antimicrobial activity, MIC by broth microdilution; type: cell-based; settings: Table 4, 35° C., 18 hours, read-out: Klebsiella pneumoniae ATCC 13883 strain MIC
Source text: (§1) Test 3: Evaluation of Antimicrobial Activity For minimum inhibitory concentration (MIC) measurement, the following broth microdilution method was applied as adapted from the standard procedure recommended by the CLSI (Clinical and Laboratory Standards Institute). The bacteria used were Pseudomonas aeruginosa strain TS88 (clinical isolate), E. coli strain ATCC25922, and Klebsiella pneumoniae strain ATCC13883. After culture overnight on a heart infusion agar medium, the cells of a test bacterium were scraped off and suspended to give a turbidity of level 0.5 on the McFarland scale; the suspension was then diluted 10 fold to prepare an inoculum solution. A 0.005 mL aliquot of the inoculum solution was inoculated in a cation-adjusted Mueller-Hinton broth medium containing a test compound and cultured at 35° C. for 18 hours. A minimum drug concentration at which no cell growth was visible to the naked eye was designated as MIC.

E. coli strain ATCC25922 = assay: Antimicrobial activity, MIC by broth microdilution; type: cell-based; settings: Escherichia coli, Table 4, 35° C., 18 hours, read-out: E. coli ATCC 25922 strain MIC
Source text: as §1

[3] = system: Pseudomonas aeruginosa strain TS88 (clinical isolate); assay: Antimicrobial activity, MIC by broth microdilution; type: cell-based; settings: Table 4, 35° C., 18 hours, read-out: Pseudomonas aeruginosa TS88 strain MIC
Source text: as §1

[4] = Table 4, read-out: Pseudomonas aeruginosa LpxC IC50
[5] = inhibitory activity on Pseudomonas aeruginosa LpxC enzyme, class symbols A/B/C, read-out: Enzyme inhibitory activity
[6] = class symbols A/B/C by IC50, Table 3, read-out: Enzyme inhibitory activity (inhibitory activity on Pseudomonas aeruginosa LpxC enzyme)

Sequence of E. coli LpxC enzyme (P0A725 whole entry): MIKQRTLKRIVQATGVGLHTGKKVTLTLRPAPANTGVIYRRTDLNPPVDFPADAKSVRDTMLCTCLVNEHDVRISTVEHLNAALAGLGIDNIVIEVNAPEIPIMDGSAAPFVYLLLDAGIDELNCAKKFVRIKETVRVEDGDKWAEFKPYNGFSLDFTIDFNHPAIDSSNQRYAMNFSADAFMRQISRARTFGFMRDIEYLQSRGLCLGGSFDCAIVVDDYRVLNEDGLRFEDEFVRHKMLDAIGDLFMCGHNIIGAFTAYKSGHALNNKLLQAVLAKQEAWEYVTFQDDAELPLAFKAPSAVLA

## CNC(=O)[C@@](C)(C(=O)NO)N(C)C(=O)c1ccc(C#Cc2ccc(CN3CCCOCC3)cc2)cc1 [Compound 376, (2S)-N-hydroxy-N′,2-dimethyl-2-[methyl(4-{[4-(1,4-oxazepan-4-ylmethyl)phenyl]ethynyl}benzoyl)amino]propanediamide]
E. coli LpxC enzyme
  IC50: 129 nM
[1]; [4]
  IC50: 2 nM
[1]; [5]
  IC50: < 10 nM
[2]
  MIC: 1 µg/mL (≈ 2.03 µM)
E. coli strain ATCC25922
  MIC: 0.25 µg/mL (≈ 0.508 µM)
[3]
  MIC: 0.5 µg/mL (≈ 1.02 µM)

## CNC(=O)[C@@](C)(C(=O)NO)N(C)C(=O)c1ccc(C#Cc2ccc(CNC3COC3)cc2)cc1 [Compound 396, (2S)-N-hydroxy-N′,2-dimethyl-2-(methyl{[4-({4-[(oxetan-3-ylamino)methyl]phenyl}ethynyl)phenyl]carbonyl}amino)propanediamide]
E. coli LpxC enzyme
  IC50: 46 nM
[1]; [4]
  IC50: 3.1 nM
[1]; [5]
  IC50: < 10 nM
[2]
  MIC: 2 µg/mL (≈ 4.31 µM)
E. coli strain ATCC25922
  MIC: 0.5 µg/mL (≈ 1.08 µM)
[3]
  MIC: 2 µg/mL (≈ 4.31 µM)

## CNC(=O)[C@@](C)(C(=O)NO)N(C)C(=O)c1ccc(CCc2ccc(CN3CCOCC3)cc2)cc1 [Compound 425, (2S)-N-hydroxy-N′,2-dimethyl-2-{methyl[(4-{2-[4-(morpholin-4-ylmethyl)phenyl]ethyl}phenyl)carbonyl]amino}propanediamide]
E. coli LpxC enzyme
  IC50: 121 nM
[1]; [4]
  IC50: 5.1 nM
[1]; [5]
  IC50: < 10 nM
[2]
  MIC: 8 µg/mL (≈ 16.6 µM)
E. coli strain ATCC25922
  MIC: 2 µg/mL (≈ 4.14 µM)
[3]
  MIC: 8 µg/mL (≈ 16.6 µM)

## CNC(=O)[C@@](C)(C(=O)NO)N(C)C(=O)c1ccc(/C=C/c2ccc(CN3CCOCC3)cc2)cc1 [Compound 434, (2S)-N-hydroxy-N′,2-dimethyl-2-{methyl[(4-{(E)-2-[4-(morpholin-4-ylmethyl)phenyl]ethenyl}phenyl)carbonyl]amino}propanediamide]
E. coli LpxC enzyme
  IC50: 55 nM
[1]; [4]
  IC50: 2.8 nM
[1]; [5]
  IC50: < 10 nM
[2]
  MIC: 1 µg/mL (≈ 2.08 µM)
E. coli strain ATCC25922
  MIC: 0.25 µg/mL (≈ 0.52 µM)
[3]
  MIC: 1 µg/mL (≈ 2.08 µM)

## CNC(=O)C(C(=O)NO)N(C)C(=O)c1ccc(/C=C/C#Cc2ccc(CNC3CC3)cc2)cc1 (stereo not drawn) [Compound 477, 2-[({4-[(1E)-4-{4-[(cyclopropylamino)methyl]phenyl}but-1-en-3-yn-1-yl]phenyl}carbonyl)(methyl)amino]-N-hydroxy-N′-methylpropanediamide]
E. coli LpxC enzyme
  IC50: 33 nM
[1]; [4]
  IC50: 4.3 nM
[1]; [5]
  IC50: < 10 nM
[2]
  MIC: 1 µg/mL (≈ 2.17 µM)
E. coli strain ATCC25922
  MIC: 0.25 µg/mL (≈ 0.543 µM)
[3]
  MIC: 0.5 µg/mL (≈ 1.09 µM)

## CNC(=O)C(C(=O)NO)N(C)C(=O)c1ccc(C#C/C=C/c2ccc(CNC3CC3)cc2)cc1 (stereo not drawn) [Compound 481, 2-[({4-[(3E)-4-{4-[(cyclopropylamino)methyl]phenyl}but-3-en-1-yn-1-yl]phenyl}carbonyl)(methyl)amino]-N-hydroxy-N′-methylpropanediamide]
E. coli LpxC enzyme
  IC50: 78 nM
[1]; [4]
  IC50: 9.1 nM
[1]; [5]
  IC50: < 10 nM
[2]
  MIC: 2 µg/mL (≈ 4.34 µM)
E. coli strain ATCC25922
  MIC: 0.25 µg/mL (≈ 0.543 µM)
[3]
  MIC: 1 µg/mL (≈ 2.17 µM)

## CNC(=O)C(C)(C(=O)NO)N(C)C(=O)c1ccc(C#Cc2coc(COC)c2)cc1 (stereo not drawn) [Compound 528, N-hydroxy-2-{[(4-{[5-(methoxymethyl)furan-3-yl]ethynyl}phenyl)carbonyl](methyl)amino}-N′,2-dimethylpropanediamide]
E. coli LpxC enzyme
  IC50: 25 nM
[1]
  IC50: < 10 nM
[1]; [4]
  IC50: 4.8 nM
[2]
  MIC: 2 µg/mL (≈ 4.84 µM)
E. coli strain ATCC25922
  MIC: 0.25 µg/mL (≈ 0.605 µM)
[3]
  MIC: 0.5 µg/mL (≈ 1.21 µM)

## CNC(=O)[C@@](C)(C(=O)NO)N(C)C(=O)c1ccc(C#Cc2coc(COC)c2)cc1 [Compound 550, (2S)-N-hydroxy-2-{[(4-{[5-(methoxymethyl)furan-3-yl]ethynyl}phenyl)carbonyl](methyl)amino}-N′,2-dimethylpropanediamide]
E. coli LpxC enzyme
  IC50: 12 nM
[1]
  IC50: < 10 nM
[1]; [4]
  IC50: 1.6 nM
[2]
  MIC: 1 µg/mL (≈ 2.42 µM)
E. coli strain ATCC25922
  MIC: 0.25 µg/mL (≈ 0.605 µM)
[3]
  MIC: 0.5 µg/mL (≈ 1.21 µM)

## CCOC1CN(Cc2ccc(C#Cc3ccc(C(=O)N(C)[C@@](C)(C(=O)NC)C(=O)NO)cc3)cc2)C1 [Compound 557, (2S)-2-[{[4-({4-[(3-ethoxyazetidin-1-yl)methyl]phenyl}ethynyl)phenyl]carbonyl}(methyl)amino]-N-hydroxy-N′,2-dimethylpropanediamide]
E. coli LpxC enzyme
  IC50: 108 nM
[1]; [4]
  IC50: 2.3 nM
[1]; [6]
  IC50: < 10 nM
[2]
  MIC: 1 µg/mL (≈ 2.03 µM)
E. coli strain ATCC25922
  MIC: 0.25 µg/mL (≈ 0.508 µM)
[3]
  MIC: 0.5 µg/mL (≈ 1.02 µM)

## CNC(=O)[C@@](C)(C(=O)NO)N(C)C(=O)c1ccc(C#Cc2coc(CNC3CC3)c2)cc1 [Compound 585, (2S)-2-[{[4-({5-[(cyclopropylamino)methyl]furan-3-yl}ethynyl)phenyl]carbonyl}(methyl)amino]-N-hydroxy-N′,2-dimethylpropanediamide]
E. coli LpxC enzyme
  IC50: 88 nM
[1]; [4]
  IC50: 3.4 nM
[1]; [6]
  IC50: < 10 nM
[2]
  MIC: 1 µg/mL (≈ 2.28 µM)
E. coli strain ATCC25922
  MIC: 0.5 µg/mL (≈ 1.14 µM)
[3]
  MIC: 0.5 µg/mL (≈ 1.14 µM)
